Source: US8748426B2, “Inhibitors of diacylglycerol acyl transferase” (Piramal Enterprises Limited, priority 2009, dated 2014)

Target: T1, hDGAT1 (Homo sapiens, UniProt O75907)
T1 sequence (O75907 1-488): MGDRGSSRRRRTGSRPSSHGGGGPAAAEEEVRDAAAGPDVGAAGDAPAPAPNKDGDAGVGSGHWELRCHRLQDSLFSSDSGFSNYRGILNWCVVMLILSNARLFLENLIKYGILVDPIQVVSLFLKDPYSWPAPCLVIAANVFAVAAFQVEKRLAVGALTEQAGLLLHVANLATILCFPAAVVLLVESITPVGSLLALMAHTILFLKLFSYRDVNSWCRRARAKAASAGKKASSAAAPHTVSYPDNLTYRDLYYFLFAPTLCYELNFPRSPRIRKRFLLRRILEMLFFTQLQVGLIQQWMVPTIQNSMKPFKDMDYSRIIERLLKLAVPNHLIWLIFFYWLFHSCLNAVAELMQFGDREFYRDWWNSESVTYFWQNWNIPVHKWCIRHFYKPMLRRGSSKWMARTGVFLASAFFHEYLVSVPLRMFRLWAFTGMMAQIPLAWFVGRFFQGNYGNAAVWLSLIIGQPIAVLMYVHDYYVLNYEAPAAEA
Test: In-vitro DGAT1 assay (14C oleoyl CoA, hDGAT1 microsomes from Sf9 cells)
Conditions: for inhibition at 1 µM: read-out: % Inhibition of hDGAT1; for % Inhibition of hDGAT1: at 1 μM

In the case of `CC(C)[C@@H](C(=O)O)N1Cc2cc(-c3ccc(NC(=O)c4ccc(C(C)(C)C)cc4)cc3)ccc2C1=O` [Example 323, (S)-2-(5-(4-(4-tert-Butylbenzamido)phenyl)-1-oxoisoindolin-2-yl)-3-methyl butanoic acid], the inhibition at 1 µM is reported as 10 to 50%.

In the case of `CC(C)[C@@H](C(=O)O)N1Cc2ccc(-c3ccc(NC(=O)c4ccc(C(F)(F)F)cc4)cc3)cc2C1=O` [Example 102, (S)-3-Methyl-2-(1-oxo-6-(4-(4-(trifluoromethyl)benzamido)phenyl)isoindolin-2-yl)butanoic acid], the inhibition at 1 µM is reported as > 50%.

`COc1ccccc1NC(=S)Nc1ccc(-c2ccc3c(c2)C(=O)N([C@H](C(=O)O)C(C)C)C3)cc1` [Example 74, (S)-2-(6-(4-(3-(2-Methoxyphenyl)thioureido)phenyl)-1-oxoisoindolin-2-yl)-3-methylbutanoic acid] gave an inhibition at 1 µM of 10 to 50%.

For `COC[C@@H](C(=O)O)N1Cc2ccc(-c3ccc(NC(=O)Nc4cccc(C(F)(F)F)c4)cc3)cc2C1=O` [Example 355], the “% Inhibition of hDGAT1” value was “+ (10-50% Inhibition)”.

In the case of `CC(C)[C@@H](C(=O)O)N1Cc2cc(-c3ccc(NC(=O)Nc4ccc(C(F)(F)F)cc4)cc3)ccc2C1=O` [Example 245, (S)-3-Methyl-2-(1-oxo-5-(4-(3-(4-(trifluoromethyl)phenyl)ureido)phenyl)isoindolin-2-yl)butanoic acid], the inhibition at 1 µM is reported as > 50%.

`CC(C)[C@@H](C(=O)O)N1Cc2ccc(-c3ccc(NS(=O)(=O)C(C)C)cc3)cc2C1=O` [Example 96, (S)-3-Methyl-2-(6-(4-(1-methylethylsulfonamido)phenyl)-1-oxoisoindolin-2-yl)butanoic acid] gave an inhibition at 1 µM of 10 to 50%.

For `CC(C)[C@@H](C(=O)O)N1Cc2ccc(-c3ccc(NC(=O)C4CCCCC4)cc3)cc2C1=O` [Example 118, (S)-2-(6-(4-(Cyclohexanecarboxamido)phenyl)-1-oxoisoindolin-2-yl)-3-methylbutanoic acid], the inhibition at 1 µM was > 50%.

`CC(C)[C@@H](C(=O)O)N1Cc2ccc(-c3ccc(NC(=O)Nc4ccccc4)cc3)cc2C1=O` [Example 16, (S)-3-Methyl-2-(1-oxo-6-(4-(3-phenylureido)phenyl)isoindolin-2-yl)butanoic acid] was tested, and the inhibition at 1 µM was 10 to 50%.

In the case of `CCCCCc1ccc(C(=O)Nc2ccc(-c3ccc4c(c3)C(=O)N([C@H](C(=O)O)C(C)C)C4)nn2)cc1` [Example 500, (S)-3-Methyl-2-(1-oxo-6-(6-(4-pentylbenzamido)pyridazin-3-yl)isoindolin-2-yl)butanoic acid], the inhibition at 1 µM is reported as > 50%.

For `CC(C)[C@@H](C(=O)O)N1Cc2ccc(-c3ccc(NC(=O)Nc4ccc(C#N)cc4)cc3)cc2C1=O` [Example 40, (S)-2-(6-(4-(3-(4-Cyanophenyl)ureido)phenyl)-1-oxoisoindolin-2-yl)-3-methyl butanoic acid], the inhibition at 1 µM was > 50%.

With `O=C(Nc1ccc(-c2ccc3c(c2)CN([C@@H](Cc2ccccc2)C(=O)O)C3=O)cc1)Nc1cccc(C(F)(F)F)c1` [Example 382, (S)-2-(1-Oxo-5-(4-(3-(3-(trifluoromethyl)phenyl)ureido)phenyl)isoindolin-2-yl)-3-phenylpropanoic acid] the inhibition at 1 µM was 10 to 50%.

With `CC(C)[C@@H](C(=O)O)N1Cc2ccc(-c3ccc(NC(=O)c4ccc(C(F)(F)F)cc4F)cc3)cc2C1=O` [Example 192, (S)-2-(6-(4-(2-Fluoro-4-(trifluoromethyl)benzamido)phenyl)-1-oxoisoindolin-2-yl)-3-methylbutanoic acid] the inhibition at 1 µM was > 50%.

With `CCCCCc1ccc(C(=O)Nc2ccc(-c3ccc4c(c3)C(=O)N([C@H](C(=O)O)C(C)C)C4)cc2F)cc1` [Example 446, (S)-2-(6-(3-Fluoro-4-(4-pentylbenzamido)phenyl)-1-oxoisoindolin-2-yl)-3-methylbutanoic acid] the inhibition at 1 µM was > 50%.

Compound `CCCCOc1ccc(C(=O)Nc2ccc(-c3ccc4c(c3)C(=O)N([C@H](C(=O)O)C(C)C)C4)c(OC)c2)cc1` [Example 460, (S)-2-(6-(4-(4-Butoxybenzamido)-2-methoxyphenyl)-1-oxoisoindolin-2-yl)-3-methylbutanoic acid] has an inhibition at 1 µM of 10 to 50%.

In the case of `CC(C)[C@@H](C(=O)O)N1Cc2cc(-c3ccc(NC(=O)Nc4ccc(F)cc4)cc3)ccc2C1=O` [Example 225, (S)-2-(5-(4-(3-(4-Fluorophenyl)ureido)phenyl)-1-oxoisoindolin-2-yl)-3-methylbutanoic acid], the inhibition at 1 µM is reported as > 50%.

In the case of `CC(C)[C@@H](C(=O)O)N1Cc2ccc(-c3ccc(NC(=O)c4ccc(-c5ccccc5)cc4)cc3C(F)(F)F)cc2C1=O` [Example 426, (S)-2-(6-(4-Biphenyl-4-ylcarboxamido-2-(trifluoromethyl)phenyl)-1-oxoisoindolin-2-yl)-3-methylbutanoic acid], the “% Inhibition of hDGAT1” value is reported as “+ (10-50% Inhibition)”.

Work on `O=C(O)CCCN1Cc2ccc(-c3ccc(NC(=O)Nc4cccc(C(F)(F)F)c4)cc3)cc2C1=O` [Example 349, 4-(1-Oxo-6-(4-(3-(3-(trifluoromethyl)phenyl)ureido)phenyl)isoindolin-2-yl)butanoic acid] yielded an inhibition at 1 µM of 10 to 50%.

In the case of `CC(C)[C@@H](C(=O)O)N1Cc2ccc(-c3ccc(NC(=O)c4nc(-c5ccccc5)oc4C(F)(F)F)cn3)cc2C1=O` [Example 657, (S)-3-Methyl-2-(1-oxo-6-(5-(2-phenyl-5-(trifluoromethyl)oxazole-4-carboxamido)pyridin-2-yl)isoindolin-2-yl)butanoic acid], the inhibition at 1 µM is reported as > 50%.

`CC(C)[C@@H](C(=O)O)N1Cc2cc(-c3ccc(NC(=O)Nc4ccc(C#N)cc4)cc3)ccc2C1=O` [Example 253, (S)-2-(5-(4-(3-(4-Cyanophenyl)ureido)phenyl)-1-oxoisoindolin-2-yl)-3-methylbutanoic acid] was tested, and the inhibition at 1 µM was > 50%.

For `CC(C)[C@@H](C(=O)O)N1Cc2ccc(-c3ccc(NC(=O)c4cc(-c5ccc(F)cc5)no4)cn3)cc2C1=O` [Example 639, (S)-2-(6-(5-(3-(4-Fluorophenyl)isoxazole-5-carboxamido)pyridin-2-yl)-1-oxoisoindolin-2-yl)-3-methylbutanoic acid], the inhibition at 1 µM was > 50%.

For `Cc1oc(-c2ccccc2)nc1C(=O)Nc1ccc(-c2ccc3c(c2)C(=O)N(C2CCCC(C(=O)O)C2)C3)cc1` (centres unmarked) [Example 553, 3-(6-(4-(5-Methyl-2-phenyloxazole-4-carboxamido)phenyl)-1-oxoisoindolin-2-yl)cyclohexanecarboxylic acid], the inhibition at 1 µM was > 50%.

With `CC(C)[C@@H](C(=O)O)N1Cc2ccc(-c3ccc(NC(=O)c4cnc5ccccc5c4)cc3)cc2C1=O` [Example 651] the “% Inhibition of hDGAT1” value was “+ (10-50% Inhibition)”.

Work on `CC(C)[C@@H](C(=O)O)N1Cc2cc(-c3ccc(NS(=O)(=O)c4ccc(F)c(F)c4)cc3)ccc2C1=O` [Example 289, (S)-2-(5-(4-(3,4-Difluorophenylsulfonamido)phenyl)-1-oxoisoindolin-2-yl)-3-methylbutanoic acid] yielded an inhibition at 1 µM of 10 to 50%.

For `CC(C)[C@@H](C(=O)O)N1Cc2ccc(-c3ccc(NC(=O)c4ccc(C(F)(F)F)c(F)c4)cc3)cc2C1=O` [Example 196, (S)-2-(6-(4-(3-Fluoro-4-(trifluoromethyl)benzamido)phenyl)-1-oxoisoindolin-2-yl)-3-methylbutanoic acid], the inhibition at 1 µM was > 50%.

Work on `CC(C)[C@@H](C(=O)O)N1Cc2ccc(-c3ccc(NC(=O)c4ccc(C(C)(C)C)cc4)cc3C(F)(F)F)cc2C1=O` [Example 424, (S)-2-(6-(4-(4-tert-Butylbenzamido)-2-(trifluoromethyl)phenyl)-1-oxoisoindolin-2-yl)-3-methylbutanoic acid] yielded an inhibition at 1 µM of 10 to 50%.

For `COc1ccc(C(=O)Nc2ccc(-c3ccc4c(c3)C(=O)N([C@H](C(=O)O)C(C)C)C4)cc2)c(OC)c1` [Example 156, (S)-2-(6-(4-(2,4-Dimethoxybenzamido)phenyl)-1-oxoisoindolin-2-yl)-3-methyl butanoic acid], the inhibition at 1 µM was > 50%.

With `CCOc1ccccc1C(=O)Nc1ccc(-c2ccc3c(c2)C(=O)N([C@H](C(=O)O)C(C)C)C3)cc1` [Example 202, (S)-2-(6-(4-(2-Ethoxybenzamido)phenyl)-1-oxoisoindolin-2-yl)-3-methylbutanoic acid] the inhibition at 1 µM was > 50%.

`COc1ccc(C(=O)Nc2ccc(-c3ccc4c(c3)CN([C@H](C(=O)O)C(C)C)C4=O)cc2)cc1` [Example 311, (S)-2-(5-(4-(4-Methoxybenzamido)phenyl)-1-oxoisoindolin-2-yl)-3-methyl butanoic acid] was tested, and the inhibition at 1 µM was 10 to 50%.

Compound `CC(C)[C@@H](C(=O)O)N1Cc2ccc(-c3cnc(NC(=O)c4ccc(C(C)(C)C)cc4)cn3)cc2C1=O` [Example 505, (S)-2-(6-(5-(4-tert-Butylbenzamido)pyrazin-2-yl)-1-oxoisoindolin-2-yl)-3-methylbutanoic acid] has an inhibition at 1 µM of 10 to 50%.

`CC(C)[C@@H](C(=O)O)N1Cc2ccc(-c3ccc(NC(=O)c4ncc(-c5ccccc5)o4)cc3)cc2C1=O` [Example 614, (S)-3-Methyl-2-(1-oxo-6-(4-(5-phenyloxazole-2-carboxamido)phenyl)isoindolin-2-yl)butanoic acid] was tested, and the inhibition at 1 µM was > 50%.

`CCCCCc1ccc(C(=O)Nc2ccc(-c3ccc4c(c3)C(=O)N([C@H](C(=O)O)C(C)C)C4)c(OC)c2)cc1` [Example 462, (S)-2-(6-(2-Methoxy-4-(4-pentylbenzamido)phenyl)-1-oxoisoindolin-2-yl)-3-methylbutanoic acid] showed an inhibition at 1 µM of 10 to 50%.

For `CC(C)[C@@H](C(=O)O)N1Cc2ccc(-c3ccc(NC(=O)Nc4ccc(Cl)cc4Oc4ccccc4)cn3)cc2C1=O` [Example 396, (S)-2-(6-(5-(3-(4-Chloro-2-phenoxyphenyl)ureido)pyridin-2-yl)-1-oxoisoindolin-2-yl)-3-methylbutanoic acid], the inhibition at 1 µM was > 50%.
